How the values were obtained:
[1] = target: T1, Dihydrofolate reductase (Homo sapiens, UniProt P00374); test: Inhibition of recombinant human DHFR using DHF as substrate measured every 5 sec over 6 mins in presence of NADPH by UV-Visible spectrophotometric method relative to control
T1 sequence (P00374 whole entry): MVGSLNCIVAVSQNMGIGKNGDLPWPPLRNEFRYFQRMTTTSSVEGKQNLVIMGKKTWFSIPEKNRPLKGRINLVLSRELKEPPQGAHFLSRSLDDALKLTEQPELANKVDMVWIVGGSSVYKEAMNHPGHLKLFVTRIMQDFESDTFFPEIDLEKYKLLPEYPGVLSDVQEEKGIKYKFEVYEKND

[2] = Antiproliferative activity against human HL60 cells after 72 hrs by MTT assay; type: functional, cell-based; settings: HL-60, 72 h
[3] = Antiproliferative activity against human HepG2 cells after 72 hrs by MTT assay; type: functional, cell-based; settings: HepG2, 72 h
[4] = Antiproliferative activity against human MDA-MB-231 cells after 72 hrs by MTT assay; type: functional, cell-based; settings: MDA-MB-231, 72 h, read-out: IC50
[5] = cells; settings: Homo sapiens, HCT-116, 72 h
Description: Antiproliferative activity against human HCT116 cells after 72 hrs by MTT assay

[6] = cells; settings: Homo sapiens, A549, 72 h
Description: Antiproliferative activity against human A549 cells after 72 hrs by MTT assay

[7] = Antitumor activity against human A549 cells xenografted in BALB/c nude mouse assessed as tumor growth inhibition at 50 mg/kg, ip administered 14 times in 22 days measured on day 4 post dose relative to control; type: functional; settings: read-out: TGI
[8] = Antitumor activity against human A549 cells xenografted in BALB/c nude mouse assessed as tumor growth inhibition at 50 mg/kg, ip administered 14 times in 22 days measured on day 8 post dose relative to control; type: functional; settings: read-out: TGI
[9] = Antitumor activity against human A549 cells xenografted in BALB/c nude mouse assessed as tumor growth inhibition at 50 mg/kg, ip administered 14 times in 22 days measured on day 11 post dose relative to control; type: functional; settings: read-out: TGI
[10] = Antitumor activity against human A549 cells xenografted in BALB/c nude mouse assessed as tumor growth inhibition at 50 mg/kg, ip administered 14 times in 22 days measured on day 15 post dose relative to control; type: functional; settings: read-out: TGI
[11] = Antitumor activity against human A549 cells xenografted in BALB/c nude mouse assessed as tumor growth inhibition at 50 mg/kg, ip administered 14 times in 22 days measured on day 18 post dose relative to control; type: functional; settings: read-out: TGI
[12] = Antitumor activity against human A549 cells xenografted in BALB/c nude mouse assessed as tumor growth inhibition at 50 mg/kg, ip administered 14 times in 22 days measured on day 22 post dose relative to control; type: functional; settings: 528 h, read-out: TGI
[13] = test system: Mus musculus; test: Toxicity in BALB/c nude mouse xenografted with human A549 cells assessed as body weight at 50 mg/kg, ip administered 14 times in 22 days measured on day 1 post dose (reference value: 24.73 +/- 1.33 g); type: organism-based; settings: in vivo, 528 h
[14] = test system: Mus musculus; test: Toxicity in BALB/c nude mouse xenografted with human A549 cells assessed as body weight at 50 mg/kg, ip administered 14 times in 22 days measured on day 4 post dose (reference value: 24.84 +/- 1.22 g); type: organism-based; settings: in vivo, 528 h
[15] = test system: Mus musculus; test: Toxicity in BALB/c nude mouse xenografted with human A549 cells assessed as body weight at 50 mg/kg, ip administered 14 times in 22 days measured on day 8 post dose (reference value: 25.19 +/- 1.38 g); type: organism-based; settings: in vivo, 528 h
[16] = test system: Mus musculus; test: Toxicity in BALB/c nude mouse xenografted with human A549 cells assessed as body weight at 50 mg/kg, ip administered 14 times in 22 days measured on day 11 post dose (reference value: 24.99 +/- 0.97 g); type: organism-based; settings: in vivo, 528 h
[17] = test system: Mus musculus; test: Toxicity in BALB/c nude mouse xenografted with human A549 cells assessed as body weight at 50 mg/kg, ip administered 14 times in 22 days measured on day 15 post dose (reference value: 25.41 +/- 1.04 g); type: organism-based; settings: in vivo, 528 h
[18] = test system: Mus musculus; test: Toxicity in BALB/c nude mouse xenografted with human A549 cells assessed as body weight at 50 mg/kg, ip administered 14 times in 22 days measured on day 18 post dose (reference value: 25.66 +/- 1.16 g); type: organism-based; settings: in vivo, 528 h
[19] = test system: Mus musculus; test: Toxicity in BALB/c nude mouse xenografted with human A549 cells assessed as body weight at 50 mg/kg, ip administered 14 times in 22 days measured on day 22 post dose (reference value: 25.59 +/- 1.16 g); type: organism-based; settings: in vivo, 528 h
[20] = Antitumor activity against human A549 cells xenografted in BALB/c nude mouse assessed as tumor volume at 50 mg/kg, ip administered 14 times in 22 days measured on day 1 post dose (reference value: 117.71 +/- 7.29 mm3); type: functional
[21] = Antitumor activity against human A549 cells xenografted in BALB/c nude mouse assessed as tumor volume at 50 mg/kg, ip administered 14 times in 22 days measured on day 4 post dose (reference value: 207.73 +/- 56.48 mm3); type: functional
[22] = Antitumor activity against human A549 cells xenografted in BALB/c nude mouse assessed as tumor volume at 50 mg/kg, ip administered 14 times in 22 days measured on day 8 post dose (reference value: 288.71 +/- 54.75 mm3); type: functional
[23] = Antitumor activity against human A549 cells xenografted in BALB/c nude mouse assessed as tumor volume at 50 mg/kg, ip administered 14 times in 22 days measured on day 11 post dose (reference value: 373.93 +/- 59.98 mm3); type: functional
[24] = Antitumor activity against human A549 cells xenografted in BALB/c nude mouse assessed as tumor volume at 50 mg/kg, ip administered 14 times in 22 days measured on day 15 post dose (reference value: 502.27 +/- 69.26 mm3); type: functional
[25] = Antitumor activity against human A549 cells xenografted in BALB/c nude mouse assessed as tumor volume at 50 mg/kg, ip administered 14 times in 22 days measured on day 18 post dose (reference value: 692.11 +/- 102.17 mm3); type: functional
[26] = Antitumor activity against human A549 cells xenografted in BALB/c nude mouse assessed as tumor volume at 50 mg/kg, ip administered 14 times in 22 days measured on day 22 post dose (reference value: 912.28 +/- 140.04 mm3); type: functional

Which IC50 [1] does the source give for `NC1=NC2(CCCCC2)N(OCCCOc2ccc(Cl)cc2)C(N)=N1` here?
The IC50 was 49 nM.

And the IC50 [2]?
The IC50 was 580 nM.

What about the IC50 [3] of the same compound?
Its IC50 is 2330 nM.

What about the IC50 [4] of the same compound?
Its IC50 is 1210 nM.

And the IC50 [5]?
Its IC50 is 380 nM.

And the IC50 [6]?
The IC50 was 990 nM.

What does the source list for `NC1=NC2(CCOCC2)N(OCCCOc2ccccc2)C(N)=N1`?
IC50 [1]: 86.1 nM; IC50 [2]: 2460 nM; IC50 [5]: 6010 nM; IC50 [6]: 1080 nM

For `Br.NC1=NC2(CCOCC2)N(OCCCOc2ccc(Cl)cc2Cl)C(N)=N1`, which IC50 [1] is on record?
Its IC50 is 7.46 nM.

And the IC50 [2]?
Its IC50 is 330 nM.

What about the inhibition in vivo at 50 mg/kg [7] of the same compound?
Its inhibition in vivo at 50 mg/kg is 17.6%.

And the inhibition in vivo at 50 mg/kg [8]?
The inhibition in vivo at 50 mg/kg was 14.5%.

What about the inhibition in vivo at 50 mg/kg [9] of the same compound?
Its inhibition in vivo at 50 mg/kg is 16.3%.

And the inhibition in vivo at 50 mg/kg [10]?
Its inhibition in vivo at 50 mg/kg is 24.7%.

What about the inhibition in vivo at 50 mg/kg [11] of the same compound?
Its inhibition in vivo at 50 mg/kg is 32.8%.

And the inhibition in vivo at 50 mg/kg [12]?
Its inhibition in vivo at 50 mg/kg is 36.8%.

And the Activity [13]?
The Activity was 23.65 g.

And the Activity [14]?
Its Activity is 23.53 g.

And the Activity [15]?
Its Activity is 23.17 g.

And the Activity [16]?
Its Activity is 22.97 g.

What about the Activity [17] of the same compound?
Its Activity is 23.63 g.

What about the Activity [18] of the same compound?
Its Activity is 23.65 g.

And the Activity [19]?
Its Activity is 23.47 g.

And the Activity [20]?
Its Activity is 117.63 mm3.

What about the Activity [21] of the same compound?
The Activity was 170.3 mm3.

What about the Activity [22] of the same compound?
Its Activity is 249.09 mm3.

And the Activity [23]?
Its Activity is 312.21 mm3.

What about the Activity [24] of the same compound?
Its Activity is 378.49 mm3.

What about the Activity [25] of the same compound?
The Activity was 468.15 mm3.

What about the Activity [26] of the same compound?
Its Activity is 574.09 mm3.

And the IC50 [5]?
The IC50 was 880 nM.

And the IC50 [6]?
The IC50 was 70 nM.

Which results are given for `NC1=NC2(CCSCC2)N(OCCCOc2ccc(Cl)cc2Cl)C(N)=N1`?
IC50 [1]: 4.08 nM; IC50 [2]: 330 nM; IC50 [3]: 1380 nM; IC50 [4]: 60 nM; IC50 [5]: 1 nM; IC50 [6]: 210 nM
